# Legend:
# Sprague-Dawley rats [1] = assay: Forced swimming test after sensitization paradigm; format: in vivo; details: V animals; TEMPOL 288 μmol/kg/day 15 days from D11; after three weeks of CMS applied at D31
# Experimental: (§1) Sprague-Dawley rats were subjected to chronic social defeat (CSD) and then, four weeks later, to three weeks of chronic mild stress (SSP rats). The chronic mild stress protocol (CMS) was performed as previously described (see Blugeot et al., 2011). The control rats were control intruders (not subjected to CSD) not exposed to the three weeks of CMS (C rats).
# (§2) The CMS protocol is derived from that described by Willner et al. (1992). Briefly, various mild stresses were applied every day, over a period of three weeks. Briefly, from Monday to Friday, every morning, animals were placed in a small cage (10×16×15 cm) for 1 hour. In the afternoon, they were shaken for 10 min (Monday and Thursday), placed in a small cage containing water (2 cm high, Tuesday) or placed in another cage for 4 hours (Wednesday and Friday). Every night, the cage was inclined (45°, Tuesday and Thursday) or contained wet bedding (Wednesday and Friday). On Saturday and Sunday, the rats were subjected to a reversed dark/light cycle for 30 min, every three hours.
# Four days after the end of SSP paradigm (D52), FST experiments were performed between 08:00 and 11:30. Experiments were performed as described by Becker et al. (2008, Mol. Psychiatry 13, 1079) and Blugeot et al. (2011). Immobility time was measured with a stopwatch. […] A trained experimenter blind to the treatment observed the animals and measured immobility time. […]
# catalase = assay: Catalase activity in hippocampus; format: in vivo, Sprague-Dawley rats; details: 288 μmol/kg/day, 15 days from D11; D31
# Experimental: The animals were decapitated and the left hippocampus was homogenized in ice-cold buffer (20 mM Hepes pH 7.2, 1 mM EGTA, 210 mM mannitol, 70 mM sucrose). Homogenates were centrifuged and the supernatants were retained for analysis. Catalase and total SOD activities were immediately determined with commercially available kits (Cayman Chemical, Ann Arbor, Mich., USA), in accordance with the manufacturer's instructions. SOD and catalase specific activities are expressed as units per mg of hippocampus and as nmoles of formaldehyde formed per minute per mg of hippocampal tissue, respectively.
# Tempol (4-hydroxy-2,2,6,6-tetramethylpiperidine 1-oxyl), which was administered at a dose of 288 μmol/kg/day [Sigma-Aldrich, St Louis, Mo., USA]), was dissolved in distilled water and delivered via ALZET osmotic mini-pumps (2002, Charles River Laboratories, France). Tempol- or distilled water-filled pumps were implanted subcutaneously on the back of intruder rats under light anesthesia with isofluorane, 11 days after completion of the social-defeat procedure (D11), and were left in place for 15 days.
# Nrf2-null mice = assay: Depression-like phenotype of Nrf2-null mice after CMS; format: in vivo; details: Nrf2-null mice after three weeks of CMS; Tempol 288 μmol/kg/day from one week before CMS to end
# Experimental: (§3) Nrf2-null mice were backcrossed onto the C57BL/6 J background for seven generations using alternating male and female stock mice from the CNRS TAAM UPS44 (Orléans). The resulting wild-type (Nrf2+/+) and Nrf2−/− mice were genotyped and only male mice at 6 weeks old at the beginning of the experiments were used. The level of oxidative stress in mice was first evaluated through the measure of lipid peroxidation. Lipid peroxidation was assessed by measuring TBARS formation with a commercial assay kit (Cayman Chemical, Ann Arbor, Mich., USA), in accordance with the manufacturer's instructions. TBARS concentration was calculated from an MDA standard curve and normalized.
# (§4) To examine the depression-like phenotype of Nrf2-null mice, the helplessness behaviour, anhedonia and HPA hyperactivity (corticosterone, and adrenal gland weight) were assessed before and after a chronic mild stress (CMS) protocol. The neuroanatomical morphology of hippocampus in mice was estimated using Golgi Staining procedure. Tempol (4-hydroxy-2,2,6,6-tetramethylpiperidine 1-oxyl, Sigma-Aldrich, St Louis, Mo., USA), which was administered at a dose of 288 μmol/kg/day (Wilcox, 2010), was dissolved in distilled water and delivered via ALZET osmotic mini-pumps (1004, Charles River Laboratories, France). […]
# [2] = tested on: glutathione peroxidase (GPx); assay: Glutathione peroxidase activity in hippocampus; format: in vivo, Sprague-Dawley rats; details: 288 μmol/kg/day, 15 days from D11; D31
# Experimental: The right hippocampus was homogenized in ice-cold buffer (Tris-HCl 50 mM pH 7.5, 150 mM NaCl, 1 mM EDTA) and used for TBARS and glutathione peroxidase (GPx) assays.
# For the TBARS assay, protease inhibitors (50 μl/ml), DOC (1%), SDS (0.1%) and Triton® X-100 (0.5%) were added immediately in ice-cold buffer. For the GPx assay, 0.1 M dithiothreitol was added immediately in ice-cold buffer. The homogenates were centrifuged and the supernatants were retained for analysis. Lipid peroxidation was assessed by measuring TBARS formation with a commercial assay kit (Cayman Chemical, Ann Arbor, Mich., USA), in accordance with the manufacturer's instructions. TBARS concentration was calculated from an MDA standard curve and normalized. Total GPx activity in the homogenate was measured in accordance with the kit manufacturer's instructions (Cayman Chemical, Ann Arbor, Mich., USA). GPx specific activity is expressed as nmoles of NADPH consumed per minute per mg of hippocampal tissue. No difference in hippocampal weight was observed between defeated, vulnerable, non-vulnerable and control animals.
# Tempol (4-hydroxy-2,2,6,6-tetramethylpiperidine 1-oxyl), which was administered at a dose of 288 μmol/kg/day [Sigma-Aldrich, St Louis, Mo., USA]), was dissolved in distilled water and delivered via ALZET osmotic mini-pumps (2002, Charles River Laboratories, France). […]
# CA3 pyramidal cells = assay: CA3 dendritic architecture in Nrf2-null mice; format: in vivo; details: Tempol 288 μmol/kg/day, osmotic mini-pump, 4 weeks
# Experimental: as §3, §4
# Sprague-Dawley rats [3] = assay: Sweet water consumption after sensitization paradigm; format: in vivo; details: V animals; TEMPOL 288 μmol/kg/day 15 days from D11; after three weeks of CMS applied at D31
# Experimental: as §1, §2
# Experiments were performed as described by Becker et al. (2008) and Blugeot et al. (2011). Sucrose and water intakes were measured daily at 9:00 am. Weekly sweet water consumption was expressed as a percentage of control values (measured one week before the beginning of the conditioning sessions). Sweet water consumption indicated a preference for sucrose. […]
compound,measurement,setting,value
"CC1(C)CC(O)CC(C)(C)N1[O] [TEMPOL, 4-hydroxy-2,2,6,6-tetramethylpiperidin-1-oxyl]",immobility time in the forced swimming test,Sprague-Dawley rats [1],prevented the increase in immobility time
same,catalase activity,catalase,no effect
same,"depression-like phenotype (helplessness behaviour, anhedonia, HPA hyperactivity)",Nrf2-null mice,prevented
same,glutathione peroxidase (GPx) activity,[2],mild effect
same,dendritic retraction in CA3 pyramidal cells,CA3 pyramidal cells,prevented
same,sweet water consumption,Sprague-Dawley rats [3],prevented
